In patent publication US11254668B2, “Pyrazolo[1,5-A]pyrazin-4-yl and related derivatives” (Pfizer Inc., priority 2017, dated 2022):
Where two headings read alike, the source gives them in different places.

How the values were obtained:
Format in all cases: biochemical
JAK1 = JAK1 (Homo sapiens (Human), UniProt P23458); test: JAK Caliper Enzyme Assay at 1 mM ATP, JAK1
Summary of the method: (§1)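 Recombinant human kinase domains phosphorylate a fluorescent synthetic peptide at 1 mM ATP, room temperature, with enzyme and time tuned for 20-30% conversion; EDTA-stopped. Product/substrate separated by microfluidic mobility shift; percent effect versus DMSO and positive controls fitted to IC50 (nM).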

JAK2 = JAK2 (Homo sapiens (Human), UniProt O60674); test: JAK Caliper Enzyme Assay at 1 mM ATP, JAK2
JAK2, sequence (O60674 849-1124): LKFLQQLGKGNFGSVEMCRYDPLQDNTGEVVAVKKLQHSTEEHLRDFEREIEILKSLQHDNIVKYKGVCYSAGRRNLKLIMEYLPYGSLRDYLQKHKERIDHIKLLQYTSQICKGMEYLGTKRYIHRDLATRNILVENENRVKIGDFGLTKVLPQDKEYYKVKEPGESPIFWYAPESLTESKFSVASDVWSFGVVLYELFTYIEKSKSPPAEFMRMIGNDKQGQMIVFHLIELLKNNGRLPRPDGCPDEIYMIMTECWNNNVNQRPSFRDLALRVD
Summary of the method: (§2)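 Read-out is Caliper LabChip mobility-shift separation of phosphorylated from unphosphorylated fluorescent peptide after EDTA termination. Each JAK kinase domain (human, recombinant) runs at 1 mM ATP at room temperature, adjusted for 20–30% turnover. Inhibition is normalized to DMSO and positive-control wells and plotted against concentration.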

TYK2 = TYK2 (Homo sapiens (Human), UniProt P29597); test: JAK Caliper Enzyme Assay at 1 mM ATP, TYK2
TYK2, sequence (P29597 897-1176): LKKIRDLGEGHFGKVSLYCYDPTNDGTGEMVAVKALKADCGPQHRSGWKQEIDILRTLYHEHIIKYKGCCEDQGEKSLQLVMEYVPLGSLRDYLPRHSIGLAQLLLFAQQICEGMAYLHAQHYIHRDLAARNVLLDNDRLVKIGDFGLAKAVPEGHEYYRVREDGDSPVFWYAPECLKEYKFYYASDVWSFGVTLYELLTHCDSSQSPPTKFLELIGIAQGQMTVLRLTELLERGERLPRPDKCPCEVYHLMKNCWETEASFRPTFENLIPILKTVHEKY
Summary of the method: as §2

JAK3 = JAK3 (Homo sapiens (Human), UniProt P52333); test: JAK Caliper Enzyme Assay at 1 mM ATP, JAK3
JAK3, sequence (P52333 822-1111): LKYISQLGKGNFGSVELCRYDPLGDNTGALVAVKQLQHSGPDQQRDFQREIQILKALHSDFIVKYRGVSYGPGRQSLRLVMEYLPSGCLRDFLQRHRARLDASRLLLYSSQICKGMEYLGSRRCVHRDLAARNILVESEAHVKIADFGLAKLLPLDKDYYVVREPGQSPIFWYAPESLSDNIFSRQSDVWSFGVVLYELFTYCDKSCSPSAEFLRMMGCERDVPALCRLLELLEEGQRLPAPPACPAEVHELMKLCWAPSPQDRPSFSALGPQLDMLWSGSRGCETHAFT
Summary of the method: as §1

JAK1, sequence (P23458 875-1153): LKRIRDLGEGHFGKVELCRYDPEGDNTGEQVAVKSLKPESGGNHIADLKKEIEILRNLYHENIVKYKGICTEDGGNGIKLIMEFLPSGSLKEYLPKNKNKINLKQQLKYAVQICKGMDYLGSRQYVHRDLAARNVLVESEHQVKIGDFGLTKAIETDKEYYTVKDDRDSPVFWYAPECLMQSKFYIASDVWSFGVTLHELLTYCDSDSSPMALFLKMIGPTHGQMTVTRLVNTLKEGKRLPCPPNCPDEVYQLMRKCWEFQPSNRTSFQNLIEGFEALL

SMILES	IC50 (JAK1; JAK Caliper enzyme assay) [nM]	IC50 (JAK2; JAK Caliper enzyme assay) [nM]	IC50 (TYK2; JAK Caliper enzyme assay) [nM]	IC50 (JAK3; JAK Caliper enzyme assay) [nM]	IC50 (JAK1) [nM]	IC50 (JAK2) [nM]	IC50 (TYK2) [nM]	IC50 (JAK3) [nM]
Cn1cc(-c2cc(-c3cnn([C@]4(CC#N)C[C@H](C#N)C4)n3)n3ccnc3c2)cn1 [Example 473, cis-3-(cyanomethyl)-3-{4-[7-(1-methyl-1H-pyrazol-4-yl)imidazo[1,2-a]pyridin-5-yl]-2H-1,2,3-triazol-2-yl}cyclobutanecarbonitrile]	6470	1930	90	> 10000				
N#CCC1(n2ccc(-c3nc(-c4cn[nH]c4)cc4ncccc34)n2)CN(CC(F)(F)F)C1 [Example 74, [3-{3-[7-(1H-pyrazol-4-yl)-1,6-naphthyridin-5-yl]-1H-pyrazol-1-yl}-1-(2,2,2-trifluoroethyl)azetidin-3-yl]acetonitrile]					217	267	13	9660
CS(=O)(=O)N1CC(CC#N)(n2ncc(-c3cc(-c4ccc5c(c4)C(=O)NC5)cc4ncccc34)n2)C1 [Example 448, [1-(methylsulfonyl)-3-{4-[7-(3-oxo-2,3-dihydro-1H-isoindol-5-yl)quinolin-5-yl]-2H-1,2,3-triazol-2-yl}azetidin-3-yl]acetonitrile]	> 10000	2680	257	> 10000				
Cn1ncc(-c2cc3ncccc3c(-c3ccn(C4(CC#N)CN(S(C)(=O)=O)C4)n3)n2)c1C(N)=O [Example 134, 4-(5-{1-[3-(cyanomethyl)-1-(methylsulfonyl)azetidin-3-yl]-1H-pyrazol-3-yl}-1,6-naphthyridin-7-yl)-1-methyl-1H-pyrazole-5-carboxamide]					> 10000	> 10000	685	> 10000
Cc1nc(-c2cc(-c3cnn([C@]4(CC#N)C[C@H](C#N)C4)n3)c3cccnc3c2)c[nH]1 [Example 336, cis-3-(cyanomethyl)-3-{4-[7-(2-methyl-1H-imidazol-4-yl)quinolin-5-yl]-2H-1,2,3-triazol-2-yl}cyclobutanecarbonitrile]					326	32	8	3580
N#CC[C@]1(n2ccc(-c3nc(-c4ccc(N)cn4)cc4ncccc34)n2)C[C@@H](C#N)C1 [Example 190, cis-3-{3-[7-(5-aminopyridin-2-yl)-1,6-naphthyridin-5-yl]-1H-pyrazol-1-yl}-3-(cyanomethyl)cyclobutanecarbonitrile]					1310	596	55	> 10000
N#CCC1(n2ncc(-c3cc(-c4nc(CO)cs4)cc4ncccc34)n2)CC(C#N)C1 (stereo not drawn) [Example 340, cis-3-(cyanomethyl)-3-(4-{7-[4-(hydroxymethyl)-1,3-thiazol-2-yl]quinolin-5-yl}-2H-1,2,3-triazol-2-yl)cyclobutanecarbonitrile]					432	94	13	8910
CO[C@H]1C[C@](CC#N)(n2cc(-c3cc(-c4c[nH]nc4N)cc4ncccc34)cn2)C1 [Example 291, (trans-1-{4-[7-(3-amino-1H-pyrazol-4-yl)quinolin-5-yl]-1H-pyrazol-1-yl}-3-methoxycyclobutyl)acetonitrile]					8820	3740	343	> 10000
N#CC[C@]1(n2ncc(-c3cc(-c4nc(CO)cs4)cc4ncccc34)n2)C[C@H](C#N)C1 [Example 341, trans-3-(cyanomethyl)-3-(4-{7-[4-(hydroxymethyl)-1,3-thiazol-2-yl]quinolin-5-yl}-2H-1,2,3-triazol-2-yl)cyclobutanecarbonitrile]					3240	649	57	> 10000
Cc1ncc(-c2cc3ncccc3c(-c3ccn(C4(CC#N)CN(CC(F)(F)F)C4)n3)n2)n1C [Example 152, [3-{3-[7-(1,2-dimethyl-1H-imidazol-5-yl)-1,6-naphthyridin-5-yl]-1H-pyrazol-1-yl}-1-(2,2,2-trifluoroethyl)azetidin-3-yl]acetonitrile]					> 10000	> 10000	4140	> 10000
N#CC[C@]1(n2ncc(-c3cc(-c4cc(C(N)=O)ccn4)cc4ncccc34)n2)C[C@@H](C#N)C1 [Example 354, 2-(5-{2-[trans-3-cyano-1-(cyanomethyl)cyclobutyl]-2H-1,2,3-triazol-4-yl}quinolin-7-yl)pyridine-4-carboxamide]					> 10000	> 10000	7240	> 10000
CCN1CC(CC#N)(n2ccc(-c3nc(N4CCCC4)cc4ncccc34)n2)C1 [Example 265, (1-ethyl-3-{3-[7-(pyrrolidin-1-yl)-1,6-naphthyridin-5-yl]-1H-pyrazol-1-yl}azetidin-3-yl)acetonitrile]					> 10000	> 10000	4820	> 10000
CS(=O)(=O)N1CC(CC#N)(n2ncc(-c3nc(-c4cc[nH]n4)cc4ncccc34)n2)C1 [Example 281, [1-(methylsulfonyl)-3-{4-[7-(1H-pyrazol-3-yl)-1,6-naphthyridin-5-yl]-2H-1,2,3-triazol-2-yl}azetidin-3-yl]acetonitrile]					179	90	16	> 10000
CS(=O)(=O)N1CC(CC#N)(n2ccc(-c3nc(-c4ccc(O)cc4)cc4ncccc34)n2)C1 [Example 254, [3-{3-[7-(4-hydroxyphenyl)-1,6-naphthyridin-5-yl]-1H-pyrazol-1-yl}-1-(methylsulfonyl)azetidin-3-yl]acetonitrile]					237	205	11	> 10000
Cn1cc(-c2cc3ncccc3c(-c3ccn([C@]4(CC#N)C[C@@H](C#N)C4)n3)n2)c(N)n1 [Example 139, trans-3-{3-[7-(3-amino-1-methyl-1H-pyrazol-4-yl)-1,6-naphthyridin-5-yl]-1H-pyrazol-1-yl}-3-(cyanomethyl)cyclobutanecarbonitrile]					243	20	10	3720
CS(=O)(=O)N1CC(CC#N)(n2ccc(-c3nc(-c4cnn([C@H]5CCOC5)c4)cc4ncccc34)n2)C1 [Example 123, {1-(methylsulfonyl)-3-[3-(7-{1-[(3S)-tetrahydrofuran-3-yl]-1H-pyrazol-4-yl}-1,6-naphthyridin-5-yl)-1H-pyrazol-1-yl]azetidin-3-yl}acetonitrile]					744	54	21	9660
Cc1cn([C@]2(CC#N)C[C@@H](C#N)C2)nc1-c1nc(-c2cc(N)n(C)n2)cc2ncccc12 [Example 278, trans-3-{3-[7-(5-amino-1-methyl-1H-pyrazol-3-yl)-1,6-naphthyridin-5-yl]-4-methyl-1H-pyrazol-1-yl}-3-(cyanomethyl)cyclobutanecarbonitrile]					> 10000	9840	1430	> 10000

Continued, values first:

IC50 (JAK1; JAK Caliper enzyme assay) [nM]	IC50 (JAK2; JAK Caliper enzyme assay) [nM]	IC50 (TYK2; JAK Caliper enzyme assay) [nM]	IC50 (JAK3; JAK Caliper enzyme assay) [nM]	IC50 (JAK1) [nM]	IC50 (JAK2) [nM]	IC50 (TYK2) [nM]	IC50 (JAK3) [nM]	SMILES
				2800	1290	93	> 10000	N#CC[C@]1(n2ncc(-c3cc(-c4ccnc(N)c4)cc4ncccc34)n2)C[C@H](C#N)C1 [Example 367, trans-3-{4-[7-(2-aminopyridin-4-yl)quinolin-5-yl]-2H-1,2,3-triazol-2-yl}-3-(cyanomethyl)cyclobutanecarbonitrile]
				2050	815	119	> 10000	N#CCC1(n2ccc(-c3nc(-c4nc(CO)cs4)cc4ncccc34)n2)CC(C#N)C1 (stereo not drawn) [Example 156, cis-3-(cyanomethyl)-3-(3-{7-[4-(hydroxymethyl)-1,3-thiazol-2-yl]-1,6-naphthyridin-5-yl}-1H-pyrazol-1-yl)cyclobutanecarbonitrile]
				> 10000	8680	1640	> 10000	N#CCC1(n2ccc(-c3nc(-c4ccn[nH]4)cc4ncccc34)n2)CC(C(N)=O)C1 (stereo not drawn) [Example 25, trans-3-(cyanomethyl)-3-{3-[7-(1H-pyrazol-5-yl)-1,6-naphthyridin-5-yl]-1H-pyrazol-1-yl}cyclobutanecarboxamide]
				293	242	25	> 10000	N#CC[C@]1(n2ccc(-c3nc(-c4cn[nH]c4)cc4ncccc34)n2)C[C@H](C#N)C1 [Example 77, trans-3-(cyanomethyl)-3-{3-[7-(1H-pyrazol-4-yl)-1,6-naphthyridin-5-yl]-1H-pyrazol-1-yl}cyclobutanecarbonitrile]
> 10000	> 10000	3060	> 10000					COc1ncc(-c2cc(-c3cnn(C4(CC#N)CN(S(C)(=O)=O)C4)n3)c3cccnc3c2)cn1 [Example 405, [3-{4-[7-(2-methoxypyrimidin-5-yl)quinolin-5-yl]-2H-1,2,3-triazol-2-yl}-1-(methylsulfonyl)azetidin-3-yl]acetonitrile]
> 10000	> 10000	3470	> 10000					CS(=O)(=O)N1CC(CC#N)(n2ncc(-c3cc(-c4cnc(N)nc4)cc4ncccc34)n2)C1 [Example 393, [3-{4-[7-(2-aminopyrimidin-5-yl)quinolin-5-yl]-2H-1,2,3-triazol-2-yl}-1-(methylsulfonyl)azetidin-3-yl]acetonitrile]
				1720	354	40	> 10000	N#CC[C@]1(n2ncc(-c3cc(-c4ccc(N)cn4)cc4ncccc34)n2)C[C@H](C#N)C1 [Example 360, trans-3-{4-[7-(5-aminopyridin-2-yl)quinolin-5-yl]-2H-1,2,3-triazol-2-yl}-3-(cyanomethyl)cyclobutanecarbonitrile]
